Measured values: ChEMBL document CHEMBL5143732 (J Med Chem, 2022)
In brackets after ≈: the same amount, converted by molar mass.

Legend:
Candida albicans = assay: Antifungal activity against Candida albicans assessed as inhibition of fungal growth measured after 48 hrs by CLSI based agar dilution method; assay type: functional
Cryptococcus neoformans = assay: Antifungal activity against Cryptococcus neoformans ATCC 32609 assessed as inhibition of fungal growth measured after 48 hrs by CLSI based agar dilution method; assay type: functional
Candida parapsilosis = assay: Antifungal activity against Candida parapsilosis assessed as inhibition of fungal growth measured after 48 hrs by CLSI based agar dilution method; assay type: functional; conditions: Lodderomyces parapsilosis
Candida tropicalis = assay: Antifungal activity against Candida tropicalis assessed as inhibition of fungal growth measured after 48 hrs by CLSI based agar dilution method; assay type: functional
[1] = Hemolytic activity in human RBC measured after 1 hr; assay type: toxicity, cell-based, Erythrocyte; conditions: red blood cells (erythrocytes)
Pichia kudriavzevii [2] = assay: Antifungal activity against Candida krusei assessed as inhibition of fungal growth measured after 48 hrs by CLSI based agar dilution method; assay type: functional
Pichia kudriavzevii [3] = assay: Antifungal activity against Candida krusei ATCC 6258 assessed as inhibition of fungal growth measured after 48 hrs by CLSI based agar dilution method; assay type: functional

| Structure (SMILES) | MIC (Candida albicans) [µg/mL] | MIC (Cryptococcus neoformans) [µg/mL] | MIC (Candida parapsilosis) [µg/mL] | MIC (Candida tropicalis) [µg/mL] | HC50 at 1 h [1] [µM] | MIC (Pichia kudriavzevii [2]) [µg/mL] | MIC (Pichia kudriavzevii [3]) [µg/mL] |
| --- | --- | --- | --- | --- | --- | --- | --- |
| CNCC(=O)N[C@@H]1[C@H](O)[C@H](O[C@H]2/C=C/C=C/C=C/C=C/C=C/C=C/C=C/[C@H](C)[C@@H](O)[C@@H](C)[C@H](C)OC(=O)C[C@H](O)C[C@H](O)CC[C@@H](O)[C@H](O)C[C@H](O)C[C@]3(O)C[C@H](O)[C@@H](C(=O)NCCCO)[C@H](C2)O3)O[C@H](C)[C@H]1O | 0.125 (≈ 0.119 µM) | 0.25 (≈ 0.238 µM) | 0.5 (≈ 0.475 µM) | 0.5 (≈ 0.475 µM) | 6.24 | 0.5 (≈ 0.475 µM) | 0.25 (≈ 0.238 µM) |
| COC(=O)NNC(=O)[C@H]1[C@@H]2C[C@@H](O[C@@H]3O[C@H](C)[C@@H](O)[C@H](N)[C@@H]3O)/C=C/C=C/C=C/C=C/C=C/C=C/C=C/[C@H](C)[C@@H](O)[C@@H](C)[C@H](C)OC(=O)C[C@H](O)C[C@H](O)CC[C@@H](O)[C@H](O)C[C@H](O)C[C@](O)(C[C@@H]1O)O2 | 0.015 (≈ 0.0151 µM) | 0.125 (≈ 0.125 µM) | 0.5 (≈ 0.502 µM) | 0.5 (≈ 0.502 µM) | 5.69 | 0.015 (≈ 0.0151 µM) | 0.25 (≈ 0.251 µM) |
| C[C@@H]1[C@H](O)[C@@H](C)/C=C/C=C/C=C/C=C/C=C/C=C/C=C/[C@H](O[C@@H]2O[C@H](C)[C@@H](O)[C@H](N)[C@@H]2O)C[C@@H]2O[C@](O)(C[C@@H](O)C[C@@H](O)[C@H](O)CC[C@@H](O)C[C@@H](O)CC(=O)O[C@H]1C)C[C@H](O)[C@H]2C(=O)NNC(=O)c1ccccc1 | 0.5 (≈ 0.48 µM) | 0.5 (≈ 0.48 µM) | 4 (≈ 3.84 µM) | 4 (≈ 3.84 µM) | – | 1 (≈ 0.959 µM) | 2 (≈ 1.92 µM) |
| C[C@@H]1[C@H](O)[C@@H](C)/C=C/C=C/C=C/C=C/C=C/C=C/C=C/[C@H](O[C@@H]2O[C@H](C)[C@@H](O)[C@H](NC(=O)CCN)[C@@H]2O)C[C@@H]2O[C@](O)(C[C@@H](O)C[C@@H](O)[C@H](O)CC[C@@H](O)C[C@@H](O)CC(=O)O[C@H]1C)C[C@H](O)[C@H]2C(=O)NCCN(C)C | 0.5 (≈ 0.469 µM) | 0.125 (≈ 0.117 µM) | 2 (≈ 1.88 µM) | 0.5 (≈ 0.469 µM) | – | 0.5 (≈ 0.469 µM) | 16 (≈ 15 µM) |
| CNCCOCC(=O)N[C@@H]1[C@H](O)[C@H](O[C@H]2/C=C/C=C/C=C/C=C/C=C/C=C/C=C/[C@H](C)[C@@H](O)[C@@H](C)[C@H](C)OC(=O)C[C@H](O)C[C@H](O)CC[C@@H](O)[C@H](O)C[C@H](O)C[C@]3(O)C[C@H](O)[C@@H](C(=O)N4CCN(CCO)CC4)[C@H](C2)O3)O[C@H](C)[C@H]1O | 1 (≈ 0.869 µM) | 1 (≈ 0.869 µM) | 2 (≈ 1.74 µM) | 1 (≈ 0.869 µM) | – | 2 (≈ 1.74 µM) | 16 (≈ 13.9 µM) |
| COC(=O)NNC(=O)[C@H]1[C@@H]2C[C@@H](O[C@@H]3O[C@H](C)[C@@H](O)[C@H](NC(=O)CCN)[C@@H]3O)/C=C/C=C/C=C/C=C/C=C/C=C/C=C/[C@H](C)[C@@H](O)[C@@H](C)[C@H](C)OC(=O)C[C@H](O)C[C@H](O)CC[C@@H](O)[C@H](O)C[C@H](O)C[C@](O)(C[C@@H]1O)O2 | 0.25 (≈ 0.234 µM) | 0.25 (≈ 0.234 µM) | 8 (≈ 7.5 µM) | 8 (≈ 7.5 µM) | – | 0.5 (≈ 0.468 µM) | 8 (≈ 7.5 µM) |
| CNCC(=O)N[C@@H]1[C@H](O)[C@H](O[C@H]2/C=C/C=C/C=C/C=C/C=C/C=C/C=C/[C@H](C)[C@@H](O)[C@@H](C)[C@H](C)OC(=O)C[C@H](O)C[C@H](O)CC[C@@H](O)[C@H](O)C[C@H](O)C[C@]3(O)C[C@H](O)[C@@H](C(=O)N4CCN(CCOC)CC4)[C@H](C2)O3)O[C@H](C)[C@H]1O | 0.5 (≈ 0.446 µM) | 0.25 (≈ 0.223 µM) | 4 (≈ 3.57 µM) | 0.5 (≈ 0.446 µM) | – | 2 (≈ 1.78 µM) | 32 (≈ 28.5 µM) |
| CNCC(=O)N[C@@H]1[C@H](O)[C@H](O[C@H]2/C=C/C=C/C=C/C=C/C=C/C=C/C=C/[C@H](C)[C@@H](O)[C@@H](C)[C@H](C)OC(=O)C[C@H](O)C[C@H](O)CC[C@@H](O)[C@H](O)C[C@H](O)C[C@]3(O)C[C@H](O)[C@@H](C(=O)NCCCN(C)C)[C@H](C2)O3)O[C@H](C)[C@H]1O | 2 (≈ 1.85 µM) | 1 (≈ 0.926 µM) | 4 (≈ 3.71 µM) | 2 (≈ 1.85 µM) | – | 2 (≈ 1.85 µM) | 16 (≈ 14.8 µM) |
| CNCC(=O)N[C@@H]1[C@H](O)[C@H](O[C@H]2/C=C/C=C/C=C/C=C/C=C/C=C/C=C/[C@H](C)[C@@H](O)[C@@H](C)[C@H](C)OC(=O)C[C@H](O)C[C@H](O)CC[C@@H](O)[C@H](O)C[C@H](O)C[C@]3(O)C[C@H](O)[C@@H](C(=O)NCCN(C)C)[C@H](C2)O3)O[C@H](C)[C@H]1O | 2 (≈ 1.88 µM) | 0.5 (≈ 0.469 µM) | 2 (≈ 1.88 µM) | 4 (≈ 3.75 µM) | – | 2 (≈ 1.88 µM) | 16 (≈ 15 µM) |
| CNCC(=O)N[C@@H]1[C@H](O)[C@H](O[C@H]2/C=C/C=C/C=C/C=C/C=C/C=C/C=C/[C@H](C)[C@@H](O)[C@@H](C)[C@H](C)OC(=O)C[C@H](O)C[C@H](O)CC[C@@H](O)[C@H](O)C[C@H](O)C[C@]3(O)C[C@H](O)[C@@H](C(=O)N4CCN(CCS(C)(=O)=O)CC4)[C@H](C2)O3)O[C@H](C)[C@H]1O | 2 (≈ 1.71 µM) | 2 (≈ 1.71 µM) | 2 (≈ 1.71 µM) | 4 (≈ 3.42 µM) | – | 4 (≈ 3.42 µM) | 16 (≈ 13.7 µM) |
